# Active and inactive are the calls of the source.
# Experiments:
# [1] = target: Mu-type opioid receptor (Homo sapiens, UniProt P35372); test: HTS Image-Based Screen for Agonists of the MOR Receptor. [Related pubchem assays (depositor defined):AID1777, AID1785, AID1786, AID2133]; format: functional;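 also: imaging of beta-arrestin GFP recruitment into spots after receptor activation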
# [2] = target: T1, Delta-type opioid receptor (Homo sapiens, UniProt P41143); test: HTS Image-Based Screen for Antagonists of the DOR Receptor. [Related pubchem assays (depositor defined):AID1777, AID1785, AID1786, AID2133]; format: functional
# [3] = target: Beta-galactosidase (Escherichia coli, UniProt Q8VNN2); format: functional
# [4] = target: T2, Kappa-type opioid receptor (Homo sapiens, UniProt P41145); format: functional
# [5] = target: T2, Kappa-type opioid receptor; format: functional; remark: listed apart in the source
# [6] = target: T1, Delta-type opioid receptor; test: HTS Image-Based Screen for Agonists of the DOR Receptor. [Related pubchem assays (depositor defined):AID1777, AID1786, AID2133]; format: functional
# [7] = target: Cytochrome P450 3A4 (Homo sapiens, UniProt P08684);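 also: CYP3A4 tested as one member of a cytochrome P450 panel screen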
# [8] = target: Cytochrome P450 2C9 (Homo sapiens, UniProt P11712)
# [9] = target: Dual specificity tyrosine-phosphorylation-regulated kinase 1A (Rattus norvegicus, UniProt Q63470); format: biochemical, Homo sapiens
# [10] = target: 26S proteasome non-ATPase regulatory subunit 14 (Homo sapiens, UniProt O00487); test: inhibition of proteasome subunit RPN11 – biochemical, fluorescence polarization, uHTS hits, confirmation (AID 602368); format: functional
# [11] = target: Prothrombin (Bos taurus, UniProt P00735); test: thrombin inhibition, dose response, biochemical, fluorescence polarization, uHTS hits (AID 602369); format: functional
# [12] = target: 72 kDa type IV collagenase (Homo sapiens, UniProt P08253); test: Dose Response validation of uHTS RPN11 inhibitor hits using a MMP-2 Fluorescence assay.; format: functional
# [13] = system: HeLa; test: HeLa cell cytotoxicity, dose response, cytotoxicity control, 24 h, cherry-picked samples (AID 504726); format: functional, cell-based; conditions: Homo sapiens;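 also: potency for cytotoxicity as loss of luminescence signal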
# [14] = system: HEK293; test: cells; format: functional, cell-based; conditions: Homo sapiens
# [15] = system: HEK293; test: cells; format: functional, cell-based; conditions: Homo sapiens; remark: listed apart in the source
# [16] = inhibitors of firefly luciferase expression or activity, dose response, H4 neuroglioma cells, luminescence (AID 1990); format: functional, cell-based
# [17] = inhibitors of SNCA 5'UTR-driven reporter translation, confirmation, H4 neuroglioma cells, luminescence (AID 1988); format: functional, cell-based
# [18] = target: Nucleotide-binding oligomerization domain-containing protein 2 (Homo sapiens, UniProt Q9HC29); test: NOD2 signaling inhibitors, cell-based, luminescence, uHTS, HEK293 (AID 1566); format: functional
# [19] = system: HEK293; test: NOD2 signaling inhibitors in MDP-stimulated cells, cell-based, uHTS, luminescence (AID 2001); format: functional; conditions: Homo sapiens
# [20] = Luminescence Cell-Based Dose Confirmation HTS to Identify Inhibitors of Platelet Dense Granule Release. [Related pubchem assays: 1663 (Primary HTS), 1678 (Summary of Project)]; format: functional
# [21] = target: Luciferin 4-monooxygenase (Photinus pyralis, UniProt P08659); test: firefly luciferase enzyme inhibitors, dose response, biochemical, luminescence (AID 1891)
# [22] = system: HEK293; test: NOD1 signaling inhibitors, primary screen, cell-based, luminescence, uHTS (AID 1578); format: functional; conditions: Homo sapiens
# [23] = system: HEK293; test: cells; format: functional, cell-based; conditions: Homo sapiens; remark: listed apart in the source
# [24] = Luminescence Cell-Based Dose Response HTS to Identify Inhibitors of 5'UTR Stem-Loop Driven Prion Protein mRNA Translation in H4 Neuroglioblastoma Cells. [Related pubchem assays: 1827 (Project Summary), 1813 (Primary HTS)]; format: functional
# [25] = target: T3, Alkaline phosphatase, tissue-nonspecific isozyme (Homo sapiens, UniProt P05186); test: human TNAP enzyme inhibitors, SAR follow-up, biochemical, luminescent, dose response (AID 1056)
# T3 sequence (P05186 whole entry): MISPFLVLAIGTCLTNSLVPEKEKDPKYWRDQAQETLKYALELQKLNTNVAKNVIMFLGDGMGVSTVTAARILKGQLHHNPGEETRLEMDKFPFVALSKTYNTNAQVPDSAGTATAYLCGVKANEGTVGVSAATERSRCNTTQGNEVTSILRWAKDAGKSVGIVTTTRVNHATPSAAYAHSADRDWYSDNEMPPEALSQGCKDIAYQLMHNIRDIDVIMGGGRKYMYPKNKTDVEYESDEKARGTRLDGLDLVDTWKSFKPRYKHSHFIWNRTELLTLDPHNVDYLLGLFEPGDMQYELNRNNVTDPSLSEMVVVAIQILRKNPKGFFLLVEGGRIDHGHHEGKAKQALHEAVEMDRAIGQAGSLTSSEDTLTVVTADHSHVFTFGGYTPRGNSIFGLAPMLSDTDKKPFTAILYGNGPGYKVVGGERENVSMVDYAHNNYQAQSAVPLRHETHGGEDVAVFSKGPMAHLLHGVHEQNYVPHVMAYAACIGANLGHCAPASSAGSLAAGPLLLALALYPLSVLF
# [26] = target: Alkaline phosphatase, placental type (Homo sapiens, UniProt P05187); test: PLAP enzyme inhibitors, confirmation, biochemical, luminescence (AID 1512); format: functional
# [27] = target: Glyceraldehyde-3-phosphate dehydrogenase (Homo sapiens, UniProt P04406)
# Sequence of Glyceraldehyde-3-phosphate dehydrogenase (P04406 whole entry): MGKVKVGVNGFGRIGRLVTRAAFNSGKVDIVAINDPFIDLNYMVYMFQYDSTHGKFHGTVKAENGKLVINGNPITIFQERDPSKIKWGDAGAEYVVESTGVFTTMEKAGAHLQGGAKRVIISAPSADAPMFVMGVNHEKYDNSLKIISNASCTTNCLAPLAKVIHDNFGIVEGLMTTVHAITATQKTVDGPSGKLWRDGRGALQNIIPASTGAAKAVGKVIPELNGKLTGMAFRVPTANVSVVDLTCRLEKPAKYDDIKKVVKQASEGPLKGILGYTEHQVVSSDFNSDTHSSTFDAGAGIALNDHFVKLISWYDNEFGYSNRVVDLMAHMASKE
# T2 sequence (P41145 whole entry): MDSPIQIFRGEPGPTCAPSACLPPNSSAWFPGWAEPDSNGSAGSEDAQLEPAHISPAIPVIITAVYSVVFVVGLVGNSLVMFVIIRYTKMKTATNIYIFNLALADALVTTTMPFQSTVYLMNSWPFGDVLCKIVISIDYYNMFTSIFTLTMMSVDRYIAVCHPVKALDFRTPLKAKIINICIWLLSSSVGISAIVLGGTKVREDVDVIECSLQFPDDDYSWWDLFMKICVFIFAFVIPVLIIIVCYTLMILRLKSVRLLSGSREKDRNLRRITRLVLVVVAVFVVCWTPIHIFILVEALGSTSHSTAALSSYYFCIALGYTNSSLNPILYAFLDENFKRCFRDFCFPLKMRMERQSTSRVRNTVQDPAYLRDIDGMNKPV
# T1 sequence (P41143 whole entry): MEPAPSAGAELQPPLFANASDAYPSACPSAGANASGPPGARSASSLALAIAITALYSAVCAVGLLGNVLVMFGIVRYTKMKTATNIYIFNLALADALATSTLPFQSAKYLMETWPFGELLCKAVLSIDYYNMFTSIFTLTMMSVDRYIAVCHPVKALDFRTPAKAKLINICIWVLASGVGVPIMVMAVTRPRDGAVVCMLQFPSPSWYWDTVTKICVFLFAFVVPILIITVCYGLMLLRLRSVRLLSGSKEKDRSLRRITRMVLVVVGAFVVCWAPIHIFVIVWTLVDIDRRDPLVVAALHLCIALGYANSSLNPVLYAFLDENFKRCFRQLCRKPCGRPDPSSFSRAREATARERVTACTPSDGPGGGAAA
# Sequence of Mu-type opioid receptor (P35372 whole entry): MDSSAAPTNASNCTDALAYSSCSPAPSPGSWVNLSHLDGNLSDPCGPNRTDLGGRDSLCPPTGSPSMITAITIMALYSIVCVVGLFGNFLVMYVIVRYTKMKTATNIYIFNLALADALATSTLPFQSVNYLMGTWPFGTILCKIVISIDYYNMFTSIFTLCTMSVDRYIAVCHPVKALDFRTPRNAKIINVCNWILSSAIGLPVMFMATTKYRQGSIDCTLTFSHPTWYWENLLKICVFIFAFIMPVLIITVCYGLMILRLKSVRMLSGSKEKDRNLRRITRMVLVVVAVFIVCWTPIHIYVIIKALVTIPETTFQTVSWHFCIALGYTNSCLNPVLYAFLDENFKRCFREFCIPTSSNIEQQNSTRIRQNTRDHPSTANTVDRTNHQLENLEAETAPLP
# Sequence of Alkaline phosphatase, placental type (P05187 whole entry): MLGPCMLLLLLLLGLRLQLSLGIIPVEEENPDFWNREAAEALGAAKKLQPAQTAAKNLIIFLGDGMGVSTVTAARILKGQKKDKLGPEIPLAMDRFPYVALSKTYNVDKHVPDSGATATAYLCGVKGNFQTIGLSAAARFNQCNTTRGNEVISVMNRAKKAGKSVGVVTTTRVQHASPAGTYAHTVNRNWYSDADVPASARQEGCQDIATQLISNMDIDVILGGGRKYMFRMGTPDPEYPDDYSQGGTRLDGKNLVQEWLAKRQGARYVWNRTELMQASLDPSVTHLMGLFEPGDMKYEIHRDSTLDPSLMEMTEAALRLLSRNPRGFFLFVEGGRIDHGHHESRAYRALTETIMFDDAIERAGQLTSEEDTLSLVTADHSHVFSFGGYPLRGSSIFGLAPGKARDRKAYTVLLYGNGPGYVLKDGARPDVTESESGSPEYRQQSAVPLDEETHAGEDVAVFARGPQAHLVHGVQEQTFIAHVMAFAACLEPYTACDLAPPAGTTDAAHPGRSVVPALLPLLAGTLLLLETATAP
# Sequence of Beta-galactosidase (Q8VNN2 whole entry): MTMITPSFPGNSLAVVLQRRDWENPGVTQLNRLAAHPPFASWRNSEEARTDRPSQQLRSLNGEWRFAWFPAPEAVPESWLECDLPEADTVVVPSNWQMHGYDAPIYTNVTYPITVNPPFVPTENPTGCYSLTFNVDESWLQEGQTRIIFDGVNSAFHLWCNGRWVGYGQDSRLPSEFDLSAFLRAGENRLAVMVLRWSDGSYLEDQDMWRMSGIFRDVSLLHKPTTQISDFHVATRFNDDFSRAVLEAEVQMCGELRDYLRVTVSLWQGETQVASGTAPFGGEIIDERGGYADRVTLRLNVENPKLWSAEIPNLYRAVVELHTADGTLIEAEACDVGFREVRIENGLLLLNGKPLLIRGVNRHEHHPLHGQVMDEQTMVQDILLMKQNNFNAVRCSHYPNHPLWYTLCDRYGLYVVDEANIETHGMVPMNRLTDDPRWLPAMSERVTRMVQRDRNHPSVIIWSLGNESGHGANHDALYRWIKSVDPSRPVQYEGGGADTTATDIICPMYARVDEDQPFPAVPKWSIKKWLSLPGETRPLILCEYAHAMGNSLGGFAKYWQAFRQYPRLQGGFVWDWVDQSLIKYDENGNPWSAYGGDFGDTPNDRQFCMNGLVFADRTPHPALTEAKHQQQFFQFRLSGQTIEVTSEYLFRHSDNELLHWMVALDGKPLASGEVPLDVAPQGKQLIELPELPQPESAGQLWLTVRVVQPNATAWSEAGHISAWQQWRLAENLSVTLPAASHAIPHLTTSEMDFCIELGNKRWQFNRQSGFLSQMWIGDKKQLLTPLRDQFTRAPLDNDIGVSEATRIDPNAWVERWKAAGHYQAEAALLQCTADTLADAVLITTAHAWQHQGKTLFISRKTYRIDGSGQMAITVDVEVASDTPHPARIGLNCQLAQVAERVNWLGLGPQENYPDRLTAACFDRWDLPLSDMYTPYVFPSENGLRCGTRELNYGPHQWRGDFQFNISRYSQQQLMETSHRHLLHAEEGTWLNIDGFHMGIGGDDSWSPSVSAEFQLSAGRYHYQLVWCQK
# Sequence of Nucleotide-binding oligomerization domain-containing protein 2 (Q9HC29 whole entry, the tested form may be a part): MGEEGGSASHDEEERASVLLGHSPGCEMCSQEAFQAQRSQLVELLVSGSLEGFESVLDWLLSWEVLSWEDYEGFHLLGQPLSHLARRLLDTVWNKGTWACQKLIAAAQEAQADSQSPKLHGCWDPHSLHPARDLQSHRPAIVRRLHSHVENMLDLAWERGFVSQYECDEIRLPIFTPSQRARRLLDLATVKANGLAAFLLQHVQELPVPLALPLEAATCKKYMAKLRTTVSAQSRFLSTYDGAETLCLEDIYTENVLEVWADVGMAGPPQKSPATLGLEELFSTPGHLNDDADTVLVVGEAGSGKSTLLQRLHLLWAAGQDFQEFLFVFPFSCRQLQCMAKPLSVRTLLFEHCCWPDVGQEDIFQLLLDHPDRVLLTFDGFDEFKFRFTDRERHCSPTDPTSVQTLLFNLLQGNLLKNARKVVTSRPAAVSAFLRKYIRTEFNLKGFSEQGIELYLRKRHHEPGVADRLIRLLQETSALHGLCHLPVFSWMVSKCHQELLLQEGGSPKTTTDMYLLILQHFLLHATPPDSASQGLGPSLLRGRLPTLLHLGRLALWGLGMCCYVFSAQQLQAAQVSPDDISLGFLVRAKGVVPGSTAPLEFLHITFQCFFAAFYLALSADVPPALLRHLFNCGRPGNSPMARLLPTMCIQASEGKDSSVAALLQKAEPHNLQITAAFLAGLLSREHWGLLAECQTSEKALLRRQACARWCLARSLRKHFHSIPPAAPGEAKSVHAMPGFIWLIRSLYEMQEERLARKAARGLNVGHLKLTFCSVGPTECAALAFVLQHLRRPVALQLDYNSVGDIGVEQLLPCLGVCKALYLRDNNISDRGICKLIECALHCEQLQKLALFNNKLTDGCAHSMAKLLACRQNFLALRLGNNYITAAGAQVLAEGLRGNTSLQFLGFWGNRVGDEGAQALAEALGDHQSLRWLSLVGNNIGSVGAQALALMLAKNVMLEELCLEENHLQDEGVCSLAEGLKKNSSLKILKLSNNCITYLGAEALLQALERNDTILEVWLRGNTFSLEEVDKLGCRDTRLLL
# Sequence of 26S proteasome non-ATPase regulatory subunit 14 (O00487 whole entry): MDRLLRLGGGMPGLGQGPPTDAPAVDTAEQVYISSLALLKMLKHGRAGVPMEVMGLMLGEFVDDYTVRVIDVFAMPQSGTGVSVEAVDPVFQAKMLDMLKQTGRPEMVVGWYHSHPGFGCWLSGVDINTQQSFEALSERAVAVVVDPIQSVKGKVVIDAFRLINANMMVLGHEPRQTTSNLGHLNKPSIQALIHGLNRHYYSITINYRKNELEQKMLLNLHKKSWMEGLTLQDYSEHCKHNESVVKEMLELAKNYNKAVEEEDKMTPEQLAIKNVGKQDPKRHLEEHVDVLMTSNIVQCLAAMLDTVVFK
# Sequence of Luciferin 4-monooxygenase (P08659 whole entry): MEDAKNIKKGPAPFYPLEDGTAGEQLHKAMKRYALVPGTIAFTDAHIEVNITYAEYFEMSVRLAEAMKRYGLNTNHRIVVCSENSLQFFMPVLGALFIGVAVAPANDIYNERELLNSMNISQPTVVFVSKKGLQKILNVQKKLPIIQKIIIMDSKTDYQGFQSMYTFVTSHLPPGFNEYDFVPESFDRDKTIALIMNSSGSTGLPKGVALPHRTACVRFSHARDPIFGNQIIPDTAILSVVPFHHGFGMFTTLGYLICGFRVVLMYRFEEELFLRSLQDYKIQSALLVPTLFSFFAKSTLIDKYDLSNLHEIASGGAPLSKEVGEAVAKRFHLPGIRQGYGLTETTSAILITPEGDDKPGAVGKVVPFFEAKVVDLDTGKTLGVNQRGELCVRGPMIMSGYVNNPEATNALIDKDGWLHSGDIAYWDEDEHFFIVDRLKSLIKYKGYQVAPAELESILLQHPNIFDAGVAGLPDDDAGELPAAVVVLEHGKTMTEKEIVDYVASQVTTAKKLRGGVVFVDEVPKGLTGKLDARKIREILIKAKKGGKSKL
smiles,measurement,setting,value
CC(=O)N1N=C(c2cccs2)CC1c1cccc([N+](=O)[O-])c1 (stereo not drawn),EC50,[1],> 32 µM (inactive)
same,IC50,[2],> 32 µM (inactive)
same,EC50,[3],20.4 µM (active)
same,IC50,[4],> 32 µM
same,IC50,[5],14.4 µM (active)
same,EC50,[6],> 32 µM (inactive)
CCOC(=O)c1c(C)nc2sc3c(=O)n(-c4ccc(C)cc4)cnc3c2c1-c1ccc(OC)cc1,AC50,[7],inconclusive
same,AC50,[8],0.355 µM (inconclusive)
COc1ccc2c3c([nH]c2c1)C(C)NCC3 (stereo not drawn),AC50,[9],2.99 µM (active)
same,IC50,[10],17.9 µM (active)
same,IC50,[11],13.7 µM (active)
same,IC50,[12],> 100 µM (inactive)
O=C1c2ccccc2C(=O)C1c1ccccn1,AC50,[13],139 µM (active)
same,AC50,[9],9.62 µM (active)
Cc1cc(/C=N/Nc2ncnc(N)c2[N+](=O)[O-])c(C)n1-c1ccccc1,IC50,[14],> 20 µM (inactive)
same,IC50,[15],1.4 µM (active)
same,EC50,[16],0.171 µM (active)
same,EC50,[17],0.192 µM (active)
same,EC50,[18],< 0.31 µM (inactive)
same,IC50,[19],6.1 µM (active)
same,EC50,[20],3.67 µM (active)
same,EC50,[21],1.1 µM (active)
same,EC50,[22],4.14 µM (active)
same,IC50,[23],> 20 µM (inactive)
same,EC50,[24],< 0.1 µM (active)
COC(=O)c1ccccc1NC(=O)CSc1nnc(-c2ccccc2Cl)[nH]1,IC50,[25],4.88 µM (active)
same,IC50,[26],> 100 µM (inactive)
same,IC50,[27],> 100 µM (not active)

# Source: ChEMBL document CHEMBL1201862, “PubChem BioAssay data set” (2004)
